Data from ChEMBL document CHEMBL5376003, “Structure-Activity Relationship of FL118 Platform Position 7 Versus Position 9-Derived Compounds and Their Mechanism of Action and Antitumor Activity” (J Med Chem, 2023).
The source made the active and inactive calls. The rule behind the calls is not given here.

Experiments:
[1] = system: HCT-116; experiment: Induction of apoptosis in human HCT-116 cells assessed as early apoptotic cells at 2.5 nM incubated for 48 hrs by Annexin V-FITC/PI staining based flow cytometry assay; assay type: functional
[2] = system: HCT-116; experiment: Induction of apoptosis in human HCT-116 cells assessed as early apoptotic cells at 5 nM incubated for 48 hrs by Annexin V-FITC/PI staining based flow cytometry assay; assay type: functional
[3] = system: HCT-116; experiment: Induction of apoptosis in human HCT-116 cells assessed as late apoptotic cells at 2.5 nM incubated for 48 hrs by Annexin V-FITC/PI staining based flow cytometry assay; assay type: functional
[4] = system: HCT-116; experiment: Induction of apoptosis in human HCT-116 cells assessed as late apoptotic cells at 5 nM incubated for 48 hrs by Annexin V-FITC/PI staining based flow cytometry assay; assay type: functional
[5] = system: HCT-116; experiment: Induction of cell cycle arrest in human HCT-116 cells assessed as accumulation of cells at S phase at 2.5 to 10 nM incubated for 48 hrs by Annexin V-FITC/PI staining based flow cytometry assay; assay type: functional; conditions: dose 2.5-10 nM
[6] = system: HCT-116; experiment: Induction of apoptosis in human HCT-116 cells assessed as upregulation of cytochrome-C protein expression incubated for 48 hrs by Western blotting analysis; assay type: functional, cell-based
[7] = system: HCT-116; experiment: Induction of apoptosis in human HCT-116 cells assessed as increase in caspase-3 activity incubated for 48 hrs by BCA protein assay; assay type: functional, cell-based
[8] = Toxicity in SCID mouse xenografted with human PDX27454 cells assessed as body weight loss at 8 mg/kg,po administrated once per week for 3 weeks; assay type: organism-based; conditions: in vivo, 504 h
[9] = Toxicity in SCID mouse xenografted with human PDX27454 cells assessed as body weight loss at 7 mg/kg,po administrated once per week for 4 weeks; assay type: organism-based; conditions: in vivo, 672 h
[10] = system: PDX27454; experiment: Antitumor activity against human PDX27454 cells xenografted in SCID mouse model assessed as reduction in tumor growth at 2.5 to 10 mg/kg,ip administrated once per week for 4 weeks; assay type: functional, organism-based; conditions: dose 2.5-10 mg/kg
[11] = Toxicity in SCID mouse xenografted with human PDX27454 cells assessed as body weight loss at 2.5 to 5 mg/kg,ip administrated once per week for 4 weeks; assay type: organism-based; conditions: in vivo, 672 h, dose 2.5-5 mg/kg
[12] = system: HCT-116; experiment: Induction of apoptosis in human HCT-116 cells assessed as downregulation of ADK gene expression at 10 to 500 nM incubated for 6 to 48 hrs by RNA analysis; assay type: functional, cell-based; conditions: dose 10-500 nM, time 6-48 hrs
[13] = system: HCT-116; experiment: Induction of apoptosis in human HCT-116 cells assessed as downregulation of DHODH gene expression at 10 to 500 nM incubated for 6 to 48 hrs by RNA analysis; assay type: functional, cell-based; conditions: dose 10-500 nM, time 6-48 hrs
[14] = system: PDX27454; experiment: Antitumor activity against human PDX27454 cells xenografted in SCID mouse model assessed as reduction in tumor growth at 10 mg/kg,po administrated once per week for 4 weeks; assay type: functional, organism-based
[15] = system: PDX27454; experiment: Antitumor activity against human PDX27454 cells xenografted in SCID mouse model assessed as reduction in tumor growth at 15 mg/kg,po administrated once per week for 4 weeks; assay type: functional, organism-based
[16] = Toxicity in SCID mouse xenografted with human PDX27454 cells assessed as body weight loss at 15 mg/kg,po administrated once per week for 4 weeks; assay type: organism-based; conditions: in vivo, 672 h
[17] = Toxicity in SCID mouse xenografted with human PDX27454 cells assessed as body weight loss at 10 mg/kg,ip administrated once per week for 4 weeks; assay type: organism-based; conditions: in vivo, 672 h

Q: With `CC[C@@]1(O)C(=O)OCc2c1cc1n(c2=O)Cc2c-1nc1cc3c(cc1c2-c1cc(OC)cc(OC)c1)OCO3` as the compound, how does the Activity [1] read?
A: The Activity was 20.76%.

Q: What about the Activity [2] of the same compound?
A: The Activity was 26.86%.

Q: What about the Activity [3] of the same compound?
A: The Activity was 5.58%.

Q: What about the Activity [4] of the same compound?
A: The Activity was 9.79%.

Q: And the Activity [5]?
A: Its Activity is “Active”.

Q: And the Activity [6]?
A: Its Activity is “Dose-Dependent Effect”.

Q: What about the Activity [7] of the same compound?
A: Its Activity is “Dose-Dependent Effect”.

Q: For `CC[C@@]1(O)C(=O)OCc2c1cc1n(c2=O)Cc2c-1nc1cc3c(cc1c2-c1ccc(OC)cc1)OCO3`, which Activity [8] is on record?
A: The Activity was 20%.

Q: What about the Activity [9] of the same compound?
A: The Activity was over 20%.

Q: What about the Activity [10] of the same compound?
A: Its Activity is “Active”.

Q: What about the Activity [11] of the same compound?
A: Its Activity is “Toxic”.

Q: Which Activity [12] does the source give for `CC[C@@]1(O)C(=O)OCc2c1cc1n(c2=O)Cc2cc3cc4c(cc3nc2-1)OCO4` here?
A: The Activity was “Active”.

Q: And the Activity [13]?
A: Its Activity is “Active”.

Q: With `CCc1ccc(-c2c3c(nc4cc5c(cc24)OCO5)-c2cc4c(c(=O)n2C3)COC(=O)[C@]4(O)CC)cc1` as the compound, how does the Activity [14] read?
A: Its Activity is “Active”.

Q: And the Activity [15]?
A: The Activity was “Active”.

Q: What about the Activity [16] of the same compound?
A: Its Activity is “Toxic”.

Q: And the Activity [17]?
A: Its Activity is “Non-Toxic”.
